Non-standard residues stand in square brackets, D forms with d. No end group written: not given here.
T1: EAG2, endogenous, mouse whole brain (mouse, UniProt Q920E3 1-988)
T1 sequence (looked up): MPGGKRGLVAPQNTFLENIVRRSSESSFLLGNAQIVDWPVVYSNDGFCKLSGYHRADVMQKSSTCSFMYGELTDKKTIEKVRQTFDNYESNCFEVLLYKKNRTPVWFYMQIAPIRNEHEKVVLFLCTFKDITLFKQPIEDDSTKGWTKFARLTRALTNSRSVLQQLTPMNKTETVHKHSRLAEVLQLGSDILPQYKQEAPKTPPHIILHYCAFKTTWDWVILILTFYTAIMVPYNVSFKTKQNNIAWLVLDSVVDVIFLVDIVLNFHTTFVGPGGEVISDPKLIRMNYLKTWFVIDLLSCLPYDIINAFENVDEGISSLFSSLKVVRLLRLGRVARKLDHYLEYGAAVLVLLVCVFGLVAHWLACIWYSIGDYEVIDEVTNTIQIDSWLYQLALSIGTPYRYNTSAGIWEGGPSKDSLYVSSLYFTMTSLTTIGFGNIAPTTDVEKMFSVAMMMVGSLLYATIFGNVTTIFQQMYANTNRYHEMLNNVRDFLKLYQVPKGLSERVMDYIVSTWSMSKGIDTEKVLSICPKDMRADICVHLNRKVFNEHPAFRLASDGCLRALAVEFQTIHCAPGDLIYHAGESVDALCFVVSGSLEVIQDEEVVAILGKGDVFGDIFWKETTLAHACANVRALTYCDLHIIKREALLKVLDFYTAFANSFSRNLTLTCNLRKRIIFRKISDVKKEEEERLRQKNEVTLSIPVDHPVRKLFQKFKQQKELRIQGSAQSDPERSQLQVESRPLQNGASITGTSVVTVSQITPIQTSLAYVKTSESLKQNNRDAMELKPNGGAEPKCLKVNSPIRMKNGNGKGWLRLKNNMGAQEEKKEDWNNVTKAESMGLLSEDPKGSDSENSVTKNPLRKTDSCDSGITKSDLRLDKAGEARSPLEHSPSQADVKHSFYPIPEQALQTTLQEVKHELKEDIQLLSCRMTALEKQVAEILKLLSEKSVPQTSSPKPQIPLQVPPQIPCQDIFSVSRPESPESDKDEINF

B1: Kvß2, endogenous, mouse whole brain (other, UniProt P62482 1-367, looked up)
chain: MYPESTTGSPARLSLRQTGSPGMIYSTRYGSPKRQLQFYRNLGKSGLRVSCLGLGTWVTFGGQITDEMAEHLMTLAYDNGINLFDTAEVYAAGKAEVVLGNIIKKKGWRRSSLVITTKIFWGGKAETERGLSRKHIIEGLKASLERLQLEYVDVVFANRPDPNTPMEETVRAMTHVINQGMAMYWGTSRWSSMEIMEAYSVARQFNLIPPICEQAEYHMFQREKVEVQLPELFHKIGVGAMTWSPLACGIVSGKYDSGIPPYSRASLKGYQWLKDKILSEEGRRQQAKLKELQAIAERLGCTLPQLAIAWCLRNEGVSSVLLGASNAEQLMENIGAIQVLPKLSSSIVHEIDSILGNKPYSKKDYRS

Legend:
GBM532 cells = test: cell viability of GBM532 cells following peptide treatment; type: cell-based, human; details: increasing peptide concentrations
Source text: GBM532 cells were exposed to increasing concentrations of various peptide treatments. […] The peptide K59-78^TATwas used as a negative control.

[1] = biological target: T1, EAG2, endogenous, mouse whole brain; test: co-IP from lysates of mouse whole brains

Row | Molecule | cell-killing activity (GBM532 cells) | binding result [1]
1 | Retro-inverso-DIP: D-amino acids in reverse order: VLSSRRWGKKKIINGLVVEAKGAAYSGSGSGQPRRRQRRKKRG ([dV][dL][dS][dS][dR][dR][dW]G[dK][dK][dK][dI][dI][dN]G[dL][dV][dV][dE][dA][dK]G[dA][dA][dY][dS]G[dS]G[dS]G[dQ][dP][dR][dR][dR][dQ][dR][dR][dK][dK][dR]G) | Good cell-killing activity | 
2 | B1 |  | no binding

— patent publication US20240417439A1, “RECOMBINANT POLYPEPTIDE FOR DISRUPTING INTERACTION OF EAG2 AND KVß2 AND THERAPEUTIC APPLICATIONS THEREOF IN CANCER TREATMENT” (The Hospital for Sick Children, priority 2021, published 2024)
